In patent US9616064B2, “Rho kinase inhibitors and methods of use” (H. LEE MOFFITT CANCER CENTER AND RESEARCH INSTITUTE, INC., priority 2011, dated 2017):
Read-outs that look alike come from different tables or passages of the source.

Legend:
ROCK1 = ROCK1 (Homo sapiens (Human), UniProt Q13464); test: Z-lyte FRET assay to measure kinase inhibition, ROCK1; type: biochemical; settings: for inhibition at 50 µM: read-out: ROCK1 % inhibition @ 50 μM, 50 μM compound; for inhibition at 100 µM: read-out: ROCK1 % inhibition @ 100 μM, 100 μM compound
ROCK2 = ROCK2 (Homo sapiens (Human), UniProt O75116); test: Z-lyte FRET assay to measure kinase inhibition, ROCK2; type: biochemical
Sequence of ROCK2 (O75116 whole entry, species assumed): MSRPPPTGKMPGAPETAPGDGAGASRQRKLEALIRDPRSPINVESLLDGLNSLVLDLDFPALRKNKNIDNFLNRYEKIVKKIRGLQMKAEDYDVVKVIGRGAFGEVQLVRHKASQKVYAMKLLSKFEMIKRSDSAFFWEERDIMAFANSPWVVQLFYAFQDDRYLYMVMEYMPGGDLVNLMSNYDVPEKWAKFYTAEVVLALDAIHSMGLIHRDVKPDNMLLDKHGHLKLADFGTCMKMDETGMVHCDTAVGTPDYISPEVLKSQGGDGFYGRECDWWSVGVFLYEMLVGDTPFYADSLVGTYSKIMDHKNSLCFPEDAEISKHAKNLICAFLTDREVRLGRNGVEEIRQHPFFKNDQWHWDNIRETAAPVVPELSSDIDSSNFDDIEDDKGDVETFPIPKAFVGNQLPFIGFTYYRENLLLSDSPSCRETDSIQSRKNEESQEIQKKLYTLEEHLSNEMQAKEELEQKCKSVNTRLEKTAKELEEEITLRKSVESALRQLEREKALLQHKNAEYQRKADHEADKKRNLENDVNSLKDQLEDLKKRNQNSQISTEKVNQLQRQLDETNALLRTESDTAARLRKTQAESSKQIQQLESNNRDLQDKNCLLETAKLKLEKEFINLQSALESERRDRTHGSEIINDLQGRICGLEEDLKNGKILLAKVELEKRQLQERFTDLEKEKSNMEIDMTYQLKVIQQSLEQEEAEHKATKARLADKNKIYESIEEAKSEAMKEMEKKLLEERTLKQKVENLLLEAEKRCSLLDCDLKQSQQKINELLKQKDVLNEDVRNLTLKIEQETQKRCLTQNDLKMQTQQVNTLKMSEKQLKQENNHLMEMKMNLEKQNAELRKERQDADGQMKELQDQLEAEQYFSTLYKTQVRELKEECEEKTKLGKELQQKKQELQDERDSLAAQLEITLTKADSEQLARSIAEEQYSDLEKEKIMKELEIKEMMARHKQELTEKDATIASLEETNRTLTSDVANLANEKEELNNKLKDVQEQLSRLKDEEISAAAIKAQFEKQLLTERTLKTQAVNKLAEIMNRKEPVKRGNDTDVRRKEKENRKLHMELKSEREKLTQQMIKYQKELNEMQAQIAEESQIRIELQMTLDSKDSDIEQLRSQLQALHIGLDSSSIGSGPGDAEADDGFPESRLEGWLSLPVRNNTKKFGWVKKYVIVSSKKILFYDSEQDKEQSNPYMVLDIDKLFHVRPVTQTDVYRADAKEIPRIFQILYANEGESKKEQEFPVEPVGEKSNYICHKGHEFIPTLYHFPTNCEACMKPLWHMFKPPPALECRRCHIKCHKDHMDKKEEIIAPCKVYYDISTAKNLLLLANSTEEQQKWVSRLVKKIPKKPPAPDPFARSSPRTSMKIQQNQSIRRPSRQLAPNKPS

Sequence of ROCK1 (Q13464 whole entry): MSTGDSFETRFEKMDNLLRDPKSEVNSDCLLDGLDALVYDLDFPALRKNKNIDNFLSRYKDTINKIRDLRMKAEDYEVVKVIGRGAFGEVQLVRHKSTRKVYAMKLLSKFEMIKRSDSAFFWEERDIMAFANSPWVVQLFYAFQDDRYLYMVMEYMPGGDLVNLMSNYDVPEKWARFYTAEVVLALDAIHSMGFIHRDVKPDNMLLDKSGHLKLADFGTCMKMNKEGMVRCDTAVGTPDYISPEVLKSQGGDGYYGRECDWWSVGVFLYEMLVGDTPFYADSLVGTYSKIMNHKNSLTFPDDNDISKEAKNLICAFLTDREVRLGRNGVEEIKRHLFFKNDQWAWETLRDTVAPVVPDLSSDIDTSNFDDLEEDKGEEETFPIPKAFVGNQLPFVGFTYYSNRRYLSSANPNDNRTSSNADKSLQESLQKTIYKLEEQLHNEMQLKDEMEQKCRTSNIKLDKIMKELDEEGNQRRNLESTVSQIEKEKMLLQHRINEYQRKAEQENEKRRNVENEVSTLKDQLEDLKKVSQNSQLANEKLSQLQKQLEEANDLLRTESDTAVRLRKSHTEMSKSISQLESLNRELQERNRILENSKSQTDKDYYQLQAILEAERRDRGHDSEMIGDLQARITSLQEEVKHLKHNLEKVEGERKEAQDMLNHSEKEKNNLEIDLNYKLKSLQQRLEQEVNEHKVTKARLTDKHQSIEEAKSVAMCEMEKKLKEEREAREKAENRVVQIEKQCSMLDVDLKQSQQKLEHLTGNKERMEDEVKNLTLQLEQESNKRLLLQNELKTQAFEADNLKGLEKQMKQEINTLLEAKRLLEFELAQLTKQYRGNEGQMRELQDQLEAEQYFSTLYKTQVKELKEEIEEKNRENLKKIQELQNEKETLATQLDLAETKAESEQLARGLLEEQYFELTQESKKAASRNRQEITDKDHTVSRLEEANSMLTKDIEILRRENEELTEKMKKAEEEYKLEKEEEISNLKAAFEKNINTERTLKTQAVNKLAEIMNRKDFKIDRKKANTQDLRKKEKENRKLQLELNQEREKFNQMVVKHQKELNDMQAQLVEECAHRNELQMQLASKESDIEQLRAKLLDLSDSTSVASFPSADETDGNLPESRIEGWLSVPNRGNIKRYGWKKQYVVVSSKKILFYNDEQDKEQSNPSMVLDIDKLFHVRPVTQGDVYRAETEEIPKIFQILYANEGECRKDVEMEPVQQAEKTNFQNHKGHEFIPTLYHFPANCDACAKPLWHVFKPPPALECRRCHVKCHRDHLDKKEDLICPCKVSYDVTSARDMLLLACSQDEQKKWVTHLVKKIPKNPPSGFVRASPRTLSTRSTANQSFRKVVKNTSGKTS

SMILES | inhibition at 50 µM (ROCK1) | IC50 (ROCK1; read-out: ROCK1 IC50) | also measured
Nc1nccc(-n2ccc3c(OCc4ccccc4)cccc32)n1 | 80 ± 3% | 0.8 ± 0.5 µM | IC50 (ROCK2): 0.4 ± 0.1 µM
CC[C@H](NC(=O)c1cccc2c1ccn2-c1ccnc(N)n1)c1ccccc1 |  | 9.76 ± 0.86 µM | inhibition at 100 µM (ROCK1): 88%
Nc1nccc(Nc2ccc(S(=O)(=O)NCc3ccccc3)cc2)n1 | 30 ± 1% |  | 
Nc1nccc(Nc2ccc(S(=O)(=O)Nc3ccnn3-c3ccccc3)cc2)n1 | 1.8 ± 0.8% |  | 
Nc1nccc(-n2ccc3c(C(=O)NCc4cccc(N5CCCC5=O)c4)cccc32)n1 |  | 8.31 ± 7.39 µM | inhibition at 100 µM (ROCK1): 99%
COc1cccc(CNC(=O)c2cccc3c2ccn3-c2ccnc(NC(C)=O)n2)c1 |  | 15.4 ± 4.02 µM | inhibition at 100 µM (ROCK1): 80%
Cc1ccc2c(ccn2-c2ccnc(N)n2)c1 | 82 ± 5% | 8.3 ± 0.9 µM | IC50 (ROCK2): 7.1 ± 2.1 µM
Nc1nccc(Nc2ccccc2Cl)n1 |  |  | inhibition at 100 µM (ROCK1): 39%
COc1cccc(Nc2ccnc(N)n2)c1 | 63 ± 5% | 30.2 ± 2.5 µM | IC50 (ROCK2): 42.5 ± 6.7 µM
COC(=O)c1cccc(Nc2ccnc(N)n2)c1 | 63 ± 5% | 37 ± 8.8 µM | IC50 (ROCK2): 39.6 ± 6.2 µM
CC(=O)NS(=O)(=O)c1ccc(Nc2ccnc(N)n2)cc1 | 9 ± 1.5% |  | 
Nc1nccc(-n2ccc3c(C(=O)NCc4ccc(F)cc4)cccc32)n1 | 70 ± 3% | 10.5 ± 1 µM | IC50 (ROCK2): 1.1 ± 0.49 µM
Nc1nccc(-n2ccc3c(OCCc4ccccc4)cccc32)n1 | 63 ± 5% | 53.6 ± 4.1 µM | IC50 (ROCK2): 17 ± 1.7 µM
CC(=O)Nc1cccc(Nc2ccnc(N)n2)c1 | 42 ± 6% |  | 
CC1CN(c2ccnc(N)n2)c2ccccc21 (stereo not shown) | 93 ± 2% | 4.8 ± 0.5 µM | IC50 (ROCK2): 2.6 ± 0.1 µM
CS(=O)(=O)c1ccc2c(c1)CCN2c1ccnc(N)n1 | 49 ± 4% | 41 ± 2.3 µM | IC50 (ROCK2): 37.9 ± 2 µM
Nc1nccc(-n2cnc3ccccc32)n1 | 50 ± 1% | 38.7 ± 1.6 µM | IC50 (ROCK2): 37.4 ± 4 µM
CCc1ccc(Nc2ccnc(N)n2)cc1 | 36 ± 6% |  | 
Nc1nccc(N2CCc3ccccc3C2)n1 | 6 ± 1% |  | 
Nc1nccc(Nc2ccc(S(=O)(=O)N3CCN(c4cccc(C(F)(F)F)c4)CC3)cc2)n1 | -0.3 ± 0.7% |  | 
Nc1nccc(-n2ccc3cc(NC(=O)c4ccccc4)ccc32)n1 | 8 ± 3% |  | 
COc1cc(NC(C)=O)ccc1Nc1ccnc(N)n1 | 2 ± 1% |  | 
Nc1nccc(Nc2cccc(Cl)c2)n1 |  | 5.71 ± 1.44 µM | inhibition at 100 µM (ROCK1): 89%
Nc1nccc(-n2ccc3c(OCc4cccc(Cl)c4F)cccc32)n1 | 10 ± 2% |  | 

SMILES | inhibition at 50 µM (ROCK1) | IC50 (ROCK1; read-out: ROCK1 IC50) | also measured
COc1cccc(CNS(=O)(=O)c2cccc(Nc3ccnc(N)n3)c2)c1 |  | 33.4 ± 8.52 µM | inhibition at 100 µM (ROCK1): 70%
c1ccc(COc2cccc3c2CCN3c2ncnc3[nH]ccc23)cc1 | 33 ± 4% |  | 
COc1cccc(CNC(=O)c2cccc3c2ccn3-c2cc(N)nc(N)n2)c1 | 1.26 ± 0.79% |  | 
Nc1nccc(Nc2ccc(S(N)(=O)=O)cc2)n1 [NSC-135784, reference compound] |  |  | IC50 (ROCK1; NCI sample, screening hit, weak inhibitor, read-out: IC50 (screen of NCI Diversity set, NCI sample)): 92 µM
CS(=O)(=O)Nc1cccc(CNC(=O)c2cccc3c2ccn3-c2ccnc(N)n2)c1 |  | 3.26 ± 0.57 µM | inhibition at 100 µM (ROCK1): 100%
CCOc1cccc(CNC(=O)c2cccc3c2ccn3-c2ccnc(N)n2)c1 |  | 3.37 ± 0.53 µM | inhibition at 100 µM (ROCK1): 61%
Nc1nccc(-n2ccc3cc(C(=O)Nc4ccccc4)ccc32)n1 | 17 ± 2% |  | 
CC(=O)N(C)c1cccc(CNC(=O)c2cccc3c2ccn3-c2ccnc(N)n2)c1 |  | 40.3 ± 11 µM | inhibition at 100 µM (ROCK1): 47%
Nc1nccc(-n2ccc3c(C(=O)NCc4ccccc4-c4ccccc4)cccc32)n1 |  |  | inhibition at 100 µM (ROCK1): 7%
COc1cccc(CC(=O)Nc2cccc3c2ccn3-c2ccnc(N)n2)c1 |  | 13 ± 6.81 µM | inhibition at 100 µM (ROCK1): 62%
COc1cccc([C@@H](C)NC(=O)c2cccc3c2ccn3-c2ccnc(N)n2)c1 |  | 0.213 ± 0.025 µM | inhibition at 100 µM (ROCK1): 92%
COc1ccc(CNC(=O)c2cccc3c2ccn3-c2ccnc(N)n2)cc1 | 19.4 ± 13.7% |  | 
Nc1nccc(-n2ccc3c(C(=O)Nc4ccccc4)cccc32)n1 | 9 ± 1% |  | 
CS(=O)(=O)c1ccc(Nc2ccnc(N)n2)cc1 | 38 ± 1% |  | 
Nc1nccc(Nc2ccc(S(=O)(=O)NC(=O)c3ccccc3)cc2)n1 | 2.1 ± 1.9% |  | 
c1ccc(Nc2nccc(N3CCc4ccccc43)n2)cc1 | -1 ± 2% |  | 
COc1cccc(CNC(=O)c2cccc(Nc3ccnc(N)n3)c2)c1 |  | 7.3 ± 1.29 µM | inhibition at 100 µM (ROCK1): 97%
Nc1nccc(-n2ccc3cccc(OCc4ccccc4)c32)n1 | -5 ± 0.5% |  | 
Nc1nccc(Nc2ccc(S(=O)(=O)Nc3nccs3)cc2)n1 | 21 ± 10% |  | 
NC(=O)c1ccc(Oc2ccnc(N)n2)cc1 | 2 ± 1% |  | 
Nc1nccc(-n2ccc3ccc(OCc4ccccc4)cc32)n1 | -5 ± 2% |  | 
Nc1nccc(Nc2ccc(S(=O)(=O)Nc3ccccc3)cc2)n1 | 46 ± 4% | > 100 µM | 
Clc1nccc(N2CCc3ccccc32)n1 | -3 ± 1% |  | 
Nc1nccc(N2CCc3cc([N+](=O)[O-])ccc32)n1 | 24 ± 2% |  | 

SMILES | inhibition at 50 µM (ROCK1) | IC50 (ROCK1; read-out: ROCK1 IC50) | also measured
CC(=O)N1CCc2ccc(Nc3ccnc(N)n3)cc21 | 10 ± 12% |  | 
CC(=O)Nc1cccc(CNC(=O)c2cccc3c2ccn3-c2ccnc(N)n2)c1 |  | 1.39 ± 0.26 µM | inhibition at 100 µM (ROCK1): 117%
COCCOc1cccc(CNC(=O)c2cccc3c2ccn3-c2ccnc(N)n2)c1 |  | 9.31 ± 8.68 µM | inhibition at 100 µM (ROCK1): 86%
Nc1nccc(Nc2ccccc2OCc2ccccc2)n1 | 22 ± 4% |  | 
Nc1nccc(-n2ccc3c(C(=O)NCc4ccc(Cl)cc4)cccc32)n1 | 31 ± 10% |  | 
NS(=O)(=O)c1ccc(Nc2ncnc3nc[nH]c23)cc1 | 54 ± 4% | 42.7 ± 0.9 µM | 
Nc1nccc(Nc2ccc(CC(=O)O)cc2)n1 | 2 ± 1% |  | 
Nc1nccc(-n2ccc3c(C(=O)NCc4ccccc4Cl)cccc32)n1 | 39.2 ± 4.19% |  | 
Nc1nccc(N2c3ccccc3CC2c2ccccc2)n1 (stereo not shown) | 18 ± 1% |  | 
Nc1nccc(Nc2ccc(S(=O)(=O)Nc3ccccn3)cc2)n1 | 2.8 ± 2.3% |  | 
Nc1nccc(N2c3ccccc3CC2C(=O)O)n1 (stereo not shown) | 6 ± 0.4% |  | 
COC[C@H](NC(=O)c1cccc2c1ccn2-c1ccnc(N)n1)c1ccccc1 |  | 15.4 ± 6.04 µM | inhibition at 100 µM (ROCK1): 91%
Nc1nccc(Oc2ccccc2)n1 | -0.5 ± 1% |  | 
Nc1nccc(Nc2ccc3cc[nH]c3c2)n1 | 23 ± 1% |  | 
Nc1nccc(Nc2ccc3[nH]ccc3c2)n1 | 37 ± 1% |  | 
Nc1nccc(Nc2cc(S(N)(=O)=O)ccc2O)n1 | 36 ± 5% |  | 
Nc1nccc(Oc2ccc(S(N)(=O)=O)cc2)n1 | -0.3 ± 1% |  | 
Nc1nccc(-n2ccc3cc(OCCc4ccccc4)ccc32)n1 | 21 ± 14% |  | 
Cc1cc(Nc2cccc(S(N)(=O)=O)c2)nc(N)n1 | 0.8 ± 1.2% |  | 
CCOc1ccc(Nc2ccnc(N)n2)cc1 | 31 ± 4% |  | 
CC[C@@H](NC(=O)c1cccc2c1ccn2-c1ccnc(N)n1)c1ccccc1 |  | 1.77 ± 0.24 µM | inhibition at 100 µM (ROCK1): 122%
Nc1nc(Nc2ccc(S(N)(=O)=O)cc2)c2[nH]cnc2n1 | 9 ± 2% |  | 
COc1cccc([C@H](C)NC(=O)c2cccc3c2ccn3-c2ccnc(N)n2)c1 |  | 1.38 ± 0.63 µM | inhibition at 100 µM (ROCK1): 97%
COc1cccc(CN(C)C(=O)c2cccc3c2ccn3-c2ccnc(N)n2)c1 |  | 15.2 ± 3.74 µM | inhibition at 100 µM (ROCK1): 89%
